Laboratory results as given in patent US5919668A, “Non-reducing saccharide and its production and use” (Kabushiki Kaisha Hayashibara Seibutsu Kagaku Kenkyujo, priority 1994, dated 1999).
“Also recorded” adds a separate entry of the source. One block for each compound: values may come before it.

How the values were obtained:
[1] = tested on: non-reducing saccharide-forming enzyme; assay type: biochemical, Rhizobium species M-11; details: for Composition: residual substrate: non-reducing saccharide-forming enzyme, 48 h, pH 7; for Composition: newly formed saccharide: 20% substrate, 2 units/g, 40° C., pH7.0, 48 hours
Method: 20% Aqueous solutions of glucose, maltose, maltotriose, maltotetraose, maltopentaose, maltohexaose or maltoheptaose as substrate were prepared, added with 2 units/g substrate solid of the purified enzyme obtained in Experiment 2, allowed to react at 40° C. and pH7.0 for 48 hours, deionized and analyzed for reaction products on high-performance liquid chromatography using "WAKO BEADS WB-T-330", a product of Wako Pure Chemical Industries, Ltd., Osaka, Japan. The high-performance liquid chromatography was conducted at ambient temperature, where water as eluent was flowed at a rate of 0.5 ml/min and "Model RI-8012", a differential reflactometer commercialized by Tosoh Corp., Tokyo, Japan, was used for analysis.

[2] = Maillard reaction (coloration with glycine, absorbance at 480 nm); assay type: physicochemical; details: for Coloration degree at 480 nm: 10% saccharide, 1% glycine, 50 mM phosphate buffer pH7.0, 100° C., 90 minutes, 1 cm cuvette
Method: Solutions of 10% saccharide preparation PI, PII, PIII, PIV or PV prepared in Experiment 4 and 1% glycine in 50 mM phosphate buffer (pH7.0) were incubated at 100° C. for 90 minuets, cooled and determined in 1 cm cuvette for absorbance at 480 nm. As control, maltotriose, maltotetraose, maltopentaose, maltohexaose and maltoheptaose which were used as the starting materials were treated similarly as above and determined for absorbance at 480 nm.
10% High-purity trehalose preparation, purity of 99.5%, obtained by the method in Experiment 17 and 1% glycine in 50 mM phosphate buffer (pH7.0) was incubated at 100° C. for 90 minutes, cooled and measured in lcm cuvette for absorbance at 480 nm. As control, glucose and maltose were treated similarly as above and then measured for absorbance at 480 nm.

[3] = tested on: mice; assay: Acute toxicity test, oral administration in mice; assay type: in vivo; details: oral, mice
Method: (§1) Acute toxicity tests were conducted on the non-reducing saccharide preparations PI, PII, PIII, PIV and PV prepared in Experiment 4, where they were orally administered to 7 week-old dd mice. […] Thus the LD50 of these saccharides was at least 50 g/kg or higher.
(§2) An acute toxicity test was conducted on a high-purity trehalose preparation obtained by the method in Experiment 17, purity of 99.5%, where it was orally administered in mice. […] Thus its LD50 would be briefly 50 g/kg or higher.

[4] = Acute toxicity test, oral administration in mice; assay type: in vivo; details: mouse, in vivo; oral, mice
Method: as §1, §2

[5] = Test for assimilation in vivo (blood sugar and insulin levels); details: 30 g oral, healthy men
Method: In accordance with the method reported by Atsuji et al., Rinsho Eiyo (Clinical Nutrition), Vol.41, No. 2, pp.200-208 (1972), 30 g of a high-purity trehalose preparation, purity of 99.5%, obtained by the method in Experiment 17 was prepared into 20 w/v % aqueous solution and orally administered to healthy men, age of 26, 27, 28, 29, 30 or 31 years, after which their bloods were periodically sampled and measured for blood sugar and insulin levels. Glucose was used as control.

[6] = Reducing power by the Somogyi-Nelson method, represented in terms of DE; assay type: physicochemical
Method: The high-purity preparations of the newly formed saccharides were determined for reducing power by the Somogyi-Nelson method and represented in terms of DE.

[7] = tested on: pig kidney trehalase; assay: Degradation by pig kidney trehalase; assay type: biochemical; details: trehalose, or trehalose formed from PI-PV; pH5.7, 37° C., 18 hours for the latter
Method: In order to purify trehalose from respective reaction products, they were decolored, deionized, concentrated and subjected to column fractionation on a strongly-acidic cation exchange of sodium form "XT-1016", followed by recovering high-purity fractions with trehalose contents of 97% or higher. The fractions were then concentrated to about 65% and allowed to standing at 25° C. for 2 days to crystallize out crystalline trehalose hydrate which was then separated and dried in vacuo to obtain a high-purity preparation with a trehalose content of 99% or higher. The yields against respective starting substrates on dry solid basis were as follows: from glycosyl trehalose, 9.5%; from maltosyl trehalose, 14.9%; from maltotriosyl trehalose, 16.0%; from maltotetraosyl trehalose, 18.5%; and from maltopentaosyl trehalose, 17.7%. […] As evident from the above results, the saccharides formed by subjecting alpha-glycosyl trehaloses to the trehalose-releasing enzyme were identified to be trehalose.

[8] = Properties of products (hygroscopicity, viscosity, stability, tonicity); assay type: physicochemical
[9] = biological target: T1, trehalose-releasing enzyme (Rhizobium sp. M-11, UniProt Q53238); assay type: biochemical, Rhizobium species M-11; details: trehalose-releasing enzyme, 48 h, pH 7
T1 construct: M-11, about 58-68 kDa
T1 sequence (Q53238 1-596): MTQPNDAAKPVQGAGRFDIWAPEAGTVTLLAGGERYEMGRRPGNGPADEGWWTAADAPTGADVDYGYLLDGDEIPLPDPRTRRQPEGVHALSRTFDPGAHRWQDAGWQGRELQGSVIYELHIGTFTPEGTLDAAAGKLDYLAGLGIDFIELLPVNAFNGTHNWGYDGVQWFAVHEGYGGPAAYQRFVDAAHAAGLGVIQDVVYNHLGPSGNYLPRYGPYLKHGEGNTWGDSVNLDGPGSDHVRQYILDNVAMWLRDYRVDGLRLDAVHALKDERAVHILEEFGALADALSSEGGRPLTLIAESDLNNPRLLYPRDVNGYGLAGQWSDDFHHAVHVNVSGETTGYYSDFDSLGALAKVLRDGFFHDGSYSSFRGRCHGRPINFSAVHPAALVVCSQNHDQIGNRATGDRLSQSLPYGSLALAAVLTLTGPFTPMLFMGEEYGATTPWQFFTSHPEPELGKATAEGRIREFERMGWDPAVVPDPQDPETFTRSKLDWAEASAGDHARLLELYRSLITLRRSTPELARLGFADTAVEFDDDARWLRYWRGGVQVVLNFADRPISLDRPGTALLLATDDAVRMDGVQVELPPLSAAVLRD
Method: Alpha-glycosyl trehaloses as substrates were prepared in accordance with the method described in Japanese Patent Application No. 349,216/93. More particularly, 20% aqueous solutions of maltotriose, maltotetraose, maltopentaose, maltohexaose or maltoheptaose as reducing partial starch hydrolysate were added with 2 units/g substrate solid of a purified non-reducing saccharide-forming enzyme obtained by the method in […], reacted at 40° C. and pH7.0 for 48 hours, heated for inactivation, filtered, deionized, concentrated in conventional manner and applied to ion exchange column chromatography on a strongly-acidic cation exchange "XT-1016" in sodium form. The ion exchange resin was packed in 3 jacketed-stainless steel columns, inner diameter of 2.0 cm, length of 1 m, and the columns were cascaded, loaded with 5 v/v % reaction saccharide liquid against the resin and injected with 55° C. water at SV0.13 for fractionation while keeping the temperature inside the columns at 55° C., thus obtaining high-purity preparations of non-reducing saccharides with glucose polymerization degrees of 3 or higher.
20% Aqueous solutions of these five types of non-reducing saccharides or alpha-glycosyl trehaloses were prepared, added with 2 units/g substrate solid of the purified trehalose-releasing enzyme obtained in Experiment 15, reacted at 40° C. and pH7.0 for 48 hours, deionized and subjected to high-performance liquid chromatography on "WAKO BEADS WB-T-330" for analysis of reaction products. As control, maltotriose, maltotetraose, maltopentaose, maltohexaose and maltoheptaose were subjected to the purified trehalose-releasing enzyme similarly as above and then analyzed on high-performance liquid chromatography.

Compound: OC[C@H]1O[C@H](O[C@H]2[C@H](O)[C@@H](O)C(O)O[C@@H]2CO)[C@H](O)[C@@H](O)[C@@H]1O (mixture of isomers) [Maltose, maltose]
Formation of new saccharides from substrate (in words) [1]: No saccharides were newly formed
Composition: residual substrate [1]: 100.0%
Coloration degree at 480 nm [2]: 0.926

Compound: OC[C@H]1O[C@H](O[C@H]2O[C@H](CO)[C@@H](O)[C@H](O)[C@H]2O)[C@H](O)[C@@H](O)[C@@H]1O [Trehalose, alpha,alpha-trehalose]
Animal death at the possible highest dose [3]: caused no death even in the possible highest dose
LD50 [4]: ≥ 50000 mg/kg
Time of maximum blood sugar level after administration ([5]; 20 w/v % aqueous solution): 0.5 to 1 h
Time of maximum insulin level after administration ([5]; 20 w/v % aqueous solution): 0.5 to 1 h
Assimilation (in words) ([5]; glucose as control): trehalose behaved similarly as glucose did; also recorded: readily digested and absorbed and then metabolized and utilized as energy source
Reducing power (in words) [6]: exhibits no reducing power
Degradation by pig kidney trehalase (in words) [7]: degraded by the trehalase derived from pig kidney
Coloration degree at 480 nm [2]: 0.006
Coloration relative to glucose and maltose ([2]; 480 nm, with glycine): 0.4-0.6%

Compound: OC[C@H]1O[C@H](O[C@H]2O[C@H](CO)[C@@H](O)[C@H](O)[C@H]2O)[C@H](O)[C@@H](O)[C@@H]1O [Example A-5]
Hygroscopicity (in words) [8]: substantially free of hygroscopicity

Compound: OC[C@H]1OC(O)[C@H](O)[C@@H](O)[C@@H]1O (stereo partly drawn) [Glucose, glucose]
Formation of new saccharides from substrate (in words) [1]: No saccharides were newly formed
Composition: residual substrate [1]: 100.0%
Coloration degree at 480 nm [2]: 1.671

Compound: OC[C@H]1O[C@H](O[C@H]2[C@H](O)[C@@H](O)[C@@H](O[C@H]3[C@H](O)[C@@H](O)[C@@H](O[C@H]4[C@H](O)[C@@H](O)[C@@H](O[C@H]5[C@H](O)[C@@H](O)[C@@H](O[C@H]6[C@H](O)[C@@H](O)[C@@H](O[C@H]7[C@H](O)[C@@H](O)C(O)O[C@@H]7CO)O[C@@H]6CO)O[C@@H]5CO)O[C@@H]4CO)O[C@@H]3CO)O[C@@H]2CO)[C@H](O)[C@@H](O)[C@@H]1O (stereo partly drawn) [Maltoheptaose, maltoheptaose, reference compound]
Composition: newly formed saccharide [1]: 93.4%
Composition: residual substrate [1]: 6.6%
Composition: residual substrate [9]: 100%
Coloration degree at 480 nm [2]: 0.271

Further lines, results first:

Composition: newly formed saccharide [1]: 92.7%
Composition: residual substrate [1]: 7.3%
Composition: residual substrate [9]: 100%
Coloration degree at 480 nm [2]: 0.369
Compound: OC[C@H]1O[C@H](O[C@H]2[C@H](O)[C@@H](O)[C@@H](O[C@H]3[C@H](O)[C@@H](O)[C@@H](O[C@H]4[C@H](O)[C@@H](O)[C@@H](O[C@H]5[C@H](O)[C@@H](O)C(O)O[C@@H]5CO)O[C@@H]4CO)O[C@@H]3CO)O[C@@H]2CO)[C@H](O)[C@@H](O)[C@@H]1O (stereo partly drawn) [Maltopentaose, maltopentaose, reference compound]

Composition: newly formed saccharide [1]: 93.5%
Composition: residual substrate [1]: 6.5%
Composition: residual substrate [9]: 100%
Coloration degree at 480 nm [2]: 0.318
Compound: OC[C@H]1O[C@H](O[C@H]2[C@H](O)[C@@H](O)[C@@H](O[C@H]3[C@H](O)[C@@H](O)[C@@H](O[C@H]4[C@H](O)[C@@H](O)[C@@H](O[C@H]5[C@H](O)[C@@H](O)[C@@H](O[C@H]6[C@H](O)[C@@H](O)C(O)O[C@@H]6CO)O[C@@H]5CO)O[C@@H]4CO)O[C@@H]3CO)O[C@@H]2CO)[C@H](O)[C@@H](O)[C@@H]1O (stereo partly drawn) [Maltohexaose, maltohexaose, reference compound]

Composition: newly formed saccharide [1]: 35.0%
Composition: residual substrate [1]: 65.0%
Composition: residual substrate [9]: 100%
Coloration degree at 480 nm [2]: 0.623
Compound: OC[C@H]1O[C@H](O[C@H]2[C@H](O)[C@@H](O)[C@@H](O[C@H]3[C@H](O)[C@@H](O)C(O)O[C@@H]3CO)O[C@@H]2CO)[C@H](O)[C@@H](O)[C@@H]1O (stereo partly drawn) [Maltotriose, maltotriose, reference compound]

Composition: newly formed saccharide [1]: 85.6%
Composition: residual substrate [1]: 14.4%
Composition: residual substrate [9]: 100%
Coloration degree at 480 nm [2]: 0.475
Compound: OC[C@H]1O[C@H](O[C@H]2[C@H](O)[C@@H](O)[C@@H](O[C@H]3[C@H](O)[C@@H](O)[C@@H](O[C@H]4[C@H](O)[C@@H](O)C(O)O[C@@H]4CO)O[C@@H]3CO)O[C@@H]2CO)[C@H](O)[C@@H](O)[C@@H]1O (stereo partly drawn) [Maltotetraose, maltotetraose, reference compound]
